Consider one molecule from US20160067272A1, “METHODS FOR TREATING IMMUNE DISEASES” (priority 2013, published 2016).

This experiment has as its system Fully MHC-mismatched tail skin allografts in mice. Nature of the experiment: Skin transplantation model. Type of experiment: in vivo, mouse. An excerpt:
More importantly, in transplantation nTregs promote allograft survival while Th17 cells enhance allograft rejection^44-45. Thus, to study, in vivo, the impact of NAD^+ on nTregs and Th17 cells a transplant mouse model was used. Fully MHC-mismatched C57BL/6 (H2^b) tail skin allografts were transplanted onto DBA/2 (H2^d) mice that received daily intraperitoneally a solution containing NAD^+ or a placebo solution (PBS) and graft survival was monitored. […] Therefore, NAD^+ treatment was expected to promote allograft rejection. […] Recipient mice were evaluated by day 8 and the frequency of nTregs CD4^+CD25^+Foxp3^+ and CD4^+IL17-A^+ cells was assessed (FIG. 14B). […] Next, mechanisms by which NAD^+ could promote nTreg conversion into Th17 cells and allograft survival at the same time, e.g., two paradoxes, were assessed. Strikingly, when compared to the control group, more than 60% of CD4^+ T cells of NAD^+ treated mice were IL-10^+ producing cells (FIG. 14B). It is known that IL-10 is a robust immunosuppressive cytokine^46. Therefore, it was tested whether the allograft survival observed in recipient mice treated with NAD^| was the results of a systemic increase of IL-10 production. Thus, WT and IL-10^−/− mice (on a C57BL6/ background) received a BDA skin transplant and were treated with NAD^|.
Full-thickness tail skin grafts (˜1 cm^2) were procured from C57BL/6 mice and engrafted onto the dorsolateral thoracic wall of DBA/2 recipient mice using interrupted 5-0 Vicryl sutures. NAD^+ (100 μl of a solution containing 10 mg in PBS), or PBS (100 μl) were injected intraperitoneally and grafts were covered with gauze and adhesive bandage for 5 days. Graft survival was then monitored daily and rejection was defined as graft necrosis of 100%. Two investigators blinded for the particular experimental groups assessed graft survival independently. Eight days after transplantation, single-cell leukocyte suspensions were obtained from spleens procured from recipient mice to perform re-stimulation (with PMA and Ionomycin for 2hrs) and staining for surface and intracellular antigens as described above.

Where [1] appears, read: recipient spleen, day 8, NAD+ vs placebo.

The structures appear in SMILES notation.

For the molecule `NC(=O)c1ccc[n+]([C@@H]2O[C@H](COP(=O)([O-])OP(=O)(O)OC[C@H]3O[C@@H](n4cnc5c(N)ncnc54)[C@H](O)[C@@H]3O)[C@@H](O)[C@H]2O)c1` [NAD+, nicotinamide adenine dinucleotide], the “visual sign of rejection” value (13 days after transplantation, daily NAD+) is “no visual sign of rejection”. For the same molecule, for the setting “C57BL/6 skin onto DBA/2 mice, daily i.p. NAD+”, the “allografts survived more than 18 days” value was found to be 66%. The skin allograft survival result (C57BL/6 skin onto DBA/2 mice, daily i.p. NAD+ vs control group) is given as “dramatic allograft survival”. Also, the “skin allograft survival in IL-10−/− mice” value (DBA skin onto IL-10−/− mice (C57BL/6 background), NAD+ treatment) is given as “abolished the allograft survival”. Also, under setting [1], the “frequencies of CD4+IL-17A+ cells” value is given as “increased frequencies” and the “frequency of CD4+CD25+Foxp3+ nTregs” value was “reduced frequency”.
